Source: article PMC8305664, “Knockdown of a β-Adrenergic-Like Octopamine Receptor Affects Locomotion and Reproduction of Tribolium castaneum” (International Journal of Molecular Sciences, 2021)

Each compound was assayed against T1, TcOctβ2R (β-adrenergic-like octopamine receptor) (Tribolium castaneum, UniProt N1NSX1) (assay: GloSensor cAMP assay in HEK […] cells expressing the receptor (agonist)).
T1 construct: full ORF (411 amino acids), pcDNA3.1(+), transiently expressed in HEK 293 cells
T1 sequence (N1NSX1 1-411): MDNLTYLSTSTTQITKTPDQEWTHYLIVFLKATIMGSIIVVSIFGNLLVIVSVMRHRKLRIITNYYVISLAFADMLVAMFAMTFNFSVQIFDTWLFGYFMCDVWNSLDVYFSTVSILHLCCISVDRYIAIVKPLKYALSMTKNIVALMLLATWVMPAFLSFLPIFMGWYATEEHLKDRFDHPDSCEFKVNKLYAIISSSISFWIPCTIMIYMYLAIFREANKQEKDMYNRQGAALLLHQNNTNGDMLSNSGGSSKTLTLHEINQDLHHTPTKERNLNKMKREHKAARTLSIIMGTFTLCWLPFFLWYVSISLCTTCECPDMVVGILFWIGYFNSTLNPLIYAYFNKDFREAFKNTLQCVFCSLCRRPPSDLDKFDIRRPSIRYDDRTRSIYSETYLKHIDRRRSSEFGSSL
Format: cell-based

Row | EC50 | Structure (SMILES)
1 | 7.1 nM | c1ccc2c(CC3=NCCN3)cccc2c1 [naphazoline]
2 | 28 nM | NCC(O)c1ccc(O)cc1 (stereo not drawn) [octopamine]
3 | 200 nM | NCCc1ccc(O)cc1 [tyramine]
